This note sets out measurements from patent US10471046B2, “Method for treating, preventing, or reducing the risk of skin infection” (Melinta Subsidiary Corp., priority 2014, dated 2019).

This test concerns S. aureus. Description: Minimum inhibitory concentrations (MICs) for S. aureus of exemplary compounds (Table 2). The class given is cell-based. The note with it: Staphylococcus aureus, minimum inhibitory concentrations for S. aureus; read-out: MICs. In a few lines: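 MICs (μg/mL) against S. aureus come from microtiter-tray dilution susceptibility testing per NCCLS M7-A5, comparing growth with and without compound.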

Molecules are shown by their SMILES. Converted amounts (≈) assume the structure as drawn.

Take `CCc1ccc(CNCc2ccc(-c3ccc(N4C[C@H](CNC(C)=O)OC4=O)cc3F)cc2)s1` [Compound 4162, N-[3-(4′-{[(5-Ethyl-thiophen-2-ylmethyl)-amino]-methyl}-2-fluoro-biphenyl-4-yl)-2-oxo-oxazolidin-5-(S)-ylmethyl]-acetamide]: the MIC was determined as 2 µg/mL (≈ 4.15 µM).

With `CC(=O)NC[C@H]1CN(c2ccc(-c3ccc(CNCc4c(C)nn(C)c4C)cc3)c(F)c2)C(=O)O1` [Compound 4163, N-[3-(2-Fluoro-4′-{[(1,3,5-trimethyl-1H-pyrazol-4-ylmethyl)-amino]-methyl}-biphenyl-4-yl)-2-oxo-oxazolidin-5-(S)-ylmethyl]-acetamide], the MIC worked out at 8 µg/mL (≈ 16.7 µM).

On to `CC(=O)NC[C@H]1CN(c2ccc(-c3ccc(CNCc4csnn4)c(F)c3)c(F)c2)C(=O)O1` [Compound 4164, N-[3-(2,3′-Difluoro-4′-{[([1,2,3]thiadiazol-4-ylmethyl)-amino]-methyl}-biphenyl-4-yl)-2-oxo-oxazolidin-5-(S)-ylmethyl]-acetamide], for which the MIC turned out to be 1 µg/mL (≈ 2.11 µM).

On to `CC(=O)NC[C@H]1CN(c2ccc(-c3ccc(CNCc4c[nH]c(C)n4)cc3)c(F)c2)C(=O)O1` [Compound 4165, N-[3-(2-Fluoro-4′-{[(2-methyl-1H-imidazol-4-ylmethyl)-amino]-methyl}-biphenyl-4-yl)-2-oxo-oxazolidin-5-(S)-ylmethyl]-acetamide], for which the MIC was 4 µg/mL (≈ 8.86 µM).

For `CC(=O)NC[C@H]1CN(c2ccc(-c3cccc(CNCc4csnn4)c3)c(F)c2)C(=O)O1` [Compound 4166, N-[3-(2-Fluoro-3′-{[([1,2,3]thiadiazol-4-ylmethyl)-amino]-methyl}-biphenyl-4-yl)-2-oxo-oxazolidin-5-(S)-ylmethyl]-acetamide], the MIC is 8 µg/mL (≈ 17.6 µM).

As to `CSc1ccc(CNCc2ccc(-c3ccc(N4C[C@H](CNC(C)=O)OC4=O)cc3F)cc2)s1` [Compound 4167, N-[3-(2-Fluoro-4′-{[(5-methylsulfanyl-thiophen-2-ylmethyl)-amino]-methyl}-biphenyl-4-yl)-2-oxo-oxazolidin-5-(S)-ylmethyl]-acetamide], the MIC was 2 µg/mL (≈ 4 µM).

`CC(=O)NC[C@H]1CN(c2ccc(-c3ccc(CNCc4nn(C)cc4Br)cc3)c(F)c2)C(=O)O1` [Compound 4168, N-[3-(4′-{[(4-Bromo-1-methyl-1H-pyrazol-3-ylmethyl)-amino]-methyl}-2-fluoro-biphenyl-4-yl)-2-oxo-oxazolidin-5-(S)-ylmethyl]-acetamide]: the MIC was found to be 2 µg/mL (≈ 3.77 µM).

Take `CC(=O)NC[C@H]1CN(c2ccc(-c3ccc(CNCc4[nH]ncc4Br)cc3)c(F)c2)C(=O)O1` [Compound 4169, N-[3-(4′-{[(4-Bromo-2H-pyrazol-3-ylmethyl)-amino]-methyl}-2-fluoro-biphenyl-4-yl)-2-oxo-oxazolidin-5-(S)-ylmethyl]-acetamide]: the MIC worked out at 2 µg/mL (≈ 3.87 µM).

In the case of `CC(=O)NC[C@H]1CN(c2ccc(-c3ccc(CS(=O)(=O)NCc4ccccc4)cc3)c(F)c2)C(=O)O1` [Compound 4170, N-{3-[4′-(Benzylsulfamoyl-methyl)-2-fluoro-biphenyl-4-yl]-2-oxo-oxazolidin-5-(S)-ylmethyl}-acetamide], the MIC was determined as 128 µg/mL (≈ 250 µM).

With `CC(=O)NC[C@H]1CN(c2ccc(-c3ccc(C(=O)N[C@@H](Cc4cnc[nH]4)C(N)=O)cc3)c(F)c2)C(=O)O1` [Compound 4173, 4′-[5-(S)-(Acetylamino-methyl)-2-oxo-oxazolidin-3-yl]-2′-fluoro-biphenyl-4-carboxylic acid [1-carbamoyl-2-(S)-(3H-imidazol-4-yl)-ethyl]-amide], the MIC was determined as 32 µg/mL (≈ 62.9 µM).

Turning to `CC(=O)NC[C@H]1CN(c2ccc(-c3ccc(CN[C@@H](Cc4c[nH]c5ccccc45)C(N)=O)cc3)c(F)c2)C(=O)O1` [Compound 4175, 2-({4′-[5-(S)-(Acetylamino-methyl)-2-oxo-oxazolidin-3-yl]-2′-fluoro-biphenyl-4-ylmethyl}-amino)-3-(S)-(1H-indol-3-yl)-propionamide], the MIC is 2 µg/mL (≈ 3.68 µM).

As for `CC(=O)NC[C@H]1CN(c2ccc(-c3cc(C)c(CNCc4ccncc4)cc3C)c(F)c2)C(=O)O1` [Compound 4176, N-[3-(2-Fluoro-2′,5′-dimethyl-4′-{[(pyridin-4-ylmethyl)-amino]-methyl}-biphenyl-4-yl)-2-oxo-oxazolidin-5-(S)-ylmethyl]-acetamide], the MIC turned out to be 128 µg/mL (≈ 269 µM).

Consider `CC(=O)NC[C@H]1CN(c2ccc(-c3ccc(CNCC(F)(F)c4ccccn4)cc3)c(F)c2)C(=O)O1` [Compound 4177, N-(3-{4′-[(2,2-Difluoro-2-pyridin-2-yl-ethylamino)-methyl]-2-fluoro-biphenyl-4-yl}-2-oxo-oxazolidin-5-(S)-ylmethyl)-acetamide], for which the MIC came to 4 µg/mL (≈ 8.02 µM).

For the compound `CC(=O)NC[C@H]1CN(c2ccc(-c3ccc(CNCc4n[nH]c(=O)[nH]4)cc3)c(F)c2)C(=O)O1` [Compound 4178, N-[3-(2-Fluoro-4′-{[(5-(S)-oxo-4,5-dihydro-1H-[1,2,4]triazol-3-ylmethyl)-amino]-methyl}-biphenyl-4-yl)-2-oxo-oxazolidin-5-(S)-ylmethyl]-acetamide], the MIC stood at 8 µg/mL (≈ 17.6 µM).

Turning to `CC(=O)NC[C@H]1CN(c2ccc(-c3ccc(CNCc4ccncc4F)cc3)c(F)c2)C(=O)O1` [Compound 4179, N-[3-(2-Fluoro-4′-{[(3-fluoro-pyridin-4-ylmethyl)-amino]-methyl}-biphenyl-4-yl)-2-oxo-oxazolidin-5-(S)-ylmethyl]-acetamide], the MIC stood at 2 µg/mL (≈ 4.29 µM).

For `CNc1nc(CNCc2ccc(-c3ccc(N4C[C@H](CNC(C)=O)OC4=O)cc3F)cc2)ns1` [Compound 4180, N-[3-(2-Fluoro-4′-{[(5-methylamino-[1,2,4]thiadiazol-3-ylmethyl)-amino]-methyl}-biphenyl-4-yl)-2-oxo-oxazolidin-5-(S)-ylmethyl]-acetamide], the MIC was 1 µg/mL (≈ 2.06 µM).

`CC(=O)NC[C@H]1CN(c2ccc(-c3ccc(CNCc4ccc(Br)nc4)cc3)c(F)c2)C(=O)O1` [Compound 4181, N-[3-(4′-{[(6-Bromo-pyridin-3-ylmethyl)-amino]-methyl}-2-fluoro-biphenyl-4-yl)-2-oxo-oxazolidin-5-(S)-ylmethyl]-acetamide]: the MIC was found to be 1 µg/mL (≈ 1.9 µM).

As for `CC(=O)NC[C@H]1CN(c2ccc(-c3ccc(CNCc4ccc(Br)cn4)cc3)c(F)c2)C(=O)O1` [Compound 4182, N-[3-(4′-{[(5-Bromo-pyridin-2-ylmethyl)-amino]-methyl}-2-fluoro-biphenyl-4-yl)-2-oxo-oxazolidin-5-(S)-ylmethyl]-acetamide], the MIC was found to be 2 µg/mL (≈ 3.79 µM).

For `CC(=O)NC[C@H]1CN(c2ccc(-c3ccc(CNCc4ccon4)cc3)c(F)c2)C(=O)O1` [Compound 4183, N-[3-(2-Fluoro-4′-{[(isoxazol-3-ylmethyl)-amino]-methyl}-biphenyl-4-yl)-2-oxo-oxazolidin-5-(S)-ylmethyl]-acetamide], the MIC stood at 1 µg/mL (≈ 2.28 µM).

For `CC(=O)NC[C@H]1CN(c2ccc(-c3ccc([C@@H](NCc4ccncc4)C(N)=O)cc3)c(F)c2)C(=O)O1` [Compound 4184, 2-{4′-[5-(S)-(Acetylamino-methyl)-2-oxo-oxazolidin-3-yl]-2′-fluoro-biphenyl-4-yl}-2-(R)-[(pyridin-4-ylmethyl)-amino]-acetamide], the MIC was found to be 16 µg/mL (≈ 32.6 µM).

In the case of `CC(=O)NC[C@H]1CN(c2ccc(-c3ccc([C@@H](NCc4ccccn4)C(N)=O)cc3)c(F)c2)C(=O)O1` [Compound 4185], the MIC was 16 µg/mL (≈ 32.6 µM).

Consider `CC(=O)NC[C@H]1CN(c2ccc(-c3ccc(CNCC4CCNCC4)cc3)c(F)c2)C(=O)O1` [Compound 4186, N-[3-(2-Fluoro-4′-{[(piperidin-4-ylmethyl)-amino]-methyl}-biphenyl-4-yl)-2-oxo-oxazolidin-5-(S)-ylmethyl]-acetamide], for which the MIC stood at 64 µg/mL (≈ 141 µM).

Consider `CC(=O)NC[C@H]1CN(c2ccc(-c3ccc(C(=O)NCc4ccccn4)nc3)c(F)c2)C(=O)O1` [Compound 4187, 5-{4-[5-(S)-(Acetylamino-methyl)-2-oxo-oxazolidin-3-yl]-2-fluoro-phenyl}-pyridine-2-carboxylic acid (pyridin-2-ylmethyl)-amide], for which the MIC was found to be 1 µg/mL (≈ 2.16 µM).

`CC(=O)NC[C@H]1CN(c2ccc(-c3ccc(C(=O)NCc4ccncc4)nc3)c(F)c2)C(=O)O1` [Compound 4188, 5-{4-[5-(S)-(Acetylamino-methyl)-2-oxo-oxazolidin-3-yl]-2-fluoro-phenyl}-pyridine-2-carboxylic acid (pyridin-4-ylmethyl)-amide]: the MIC was 1 µg/mL (≈ 2.16 µM).

Turning to `CC(=O)NC[C@H]1CN(c2ccc(-c3ccc(C(=O)NCc4nccs4)nc3)c(F)c2)C(=O)O1` [Compound 4189, 5-{4-[5-(S)-(Acetylamino-methyl)-2-oxo-oxazolidin-3-yl]-2-fluoro-phenyl}-pyridine-2-carboxylic acid (thiazol-2-ylmethyl)-amide], the MIC amounted to 1 µg/mL (≈ 2.13 µM).

With `CC(=O)NC[C@H]1CN(c2ccc(-c3ccc(C(=O)NCc4ccccn4)c(F)c3)c(F)c2)C(=O)O1` [Compound 4190, 4′-[5-(S)-(Acetylamino-methyl)-2-oxo-oxazolidin-3-yl]-3,2′-difluoro-biphenyl-4-carboxylic acid (pyridin-2-ylmethyl)-amide], the MIC is 1 µg/mL (≈ 2.08 µM).

Take `CC(=O)NC[C@H]1CN(c2ccc(-c3ccc(C(=O)NCCc4cnc[nH]4)c(F)c3)c(F)c2)C(=O)O1` [Compound 4191, 4′-[5-(S)-(Acetylamino-methyl)-2-oxo-oxazolidin-3-yl]-3,2′-difluoro-biphenyl-4-carboxylic acid [2-(3H-imidazol-4-yl)-ethyl]-amide]: the MIC was determined as 1 µg/mL (≈ 2.07 µM).

As for `CC(=O)NC[C@H]1CN(c2ccc(-c3ccc(COCc4ccccn4)cc3)c(F)c2)C(=O)O1` [Compound 4192, N-{3-[2-Fluoro-4′-(pyridin-2-ylmethoxymethyl)-biphenyl-4-yl]-2-oxo-oxazolidin-5-(S)-ylmethyl}-acetamide], the MIC worked out at 1 µg/mL (≈ 2.22 µM).

As for `CC(=O)NC[C@H]1CN(c2ccc(-c3ccc(CNC(=O)/C=C/c4ccc(=O)n(C)c4)cc3)c(F)c2)C(=O)O1` [Compound 4193, N-{4′-[5-(S)-(Acetylamino-methyl)-2-oxo-oxazolidin-3-yl]-2′-fluoro-biphenyl-4-ylmethyl}-3-(1-methyl-6-oxo-1,6-dihydro-pyridin-3-yl)-acrylamide], the MIC was 8 µg/mL (≈ 15.4 µM).
